One assay concerns the target T1, human 11β-HSD1 (Homo sapiens, UniProt P28845).
T1 construct: expressed in transfected cells
Description: Enzyme inhibitory activity assay, lysate of HEK293 cells stably expressing human 11β-HSD1, cortisol by competitive ELISA. The class given is biochemical. The conditions noted are these: Table 1; cell lysate, 100 nmol/L cortisone, NADPH, 37° C. 1 hour; read-out: in vitro assay (IC50 uM) h HSD1. As to the method:
(§1) 1. Human 11β-HSD1-, Human 11β-HSD2- and Mouse 11β-HSD1-Gene Clonings and Establishment of Stably Expressing Cells
(§2) Human 11β-HSD1- and human 11β-HSD2-expressing vectors were transfected into human kidney-derived cell line, HEK293 cells, using a transfection reagent, jet PEI (Funakoshi). Mouse 11β-HSD1 was transfected to Chinese hamster ovary-derived cell line, CHO-K1 cells. Selection was conducted with 200-400 μg/mL of zeocine (Invitrogen) to provide stably expressing-cell clones. The stably expressing cells were suspended in buffer solution A (20 mmol/L Tris-HCl, pH 7.4, 250 mmol/L sucrose, 1 mmol/L EGTA, 1 mmol/L EDTA, 1 mmol/L MgCl2), sonicated, and then stored at −80° C.
(§3) 2. Assay of Enzyme Inhibitory Activity
(§4) An enzymatic reaction was conducted using a polystyrene 96-well plate. Each well was added with 1 μL of a test agent dissolved in DMSO and then diluted (0.003 to 3 mmol/L), and further added with 10 μL of cell lysate diluted to a concentration of 0.1 mg/mL to 0.4 mg/mL. Next, 90 μL of buffer solution A containing substrate (100 nmol/L cortisone or cortisol) and coenzyme (400 μmol/L NADPH or NAD+) was added and the mixture was incubated at 37° C. for 1 hour. The enzymatic reaction was stopped by treating at 95° C. for 3 minutes. Cortisol that was present in the reaction solution was determined by a competitive ELISA shown below.
(§5) Anti-rabbit IgG antibody (Chemi-con) diluted to 2 μg/mL with carbonate buffer solution (pH 9.6) was added in 100 μL each to a 96-well immuno plate (Nunc) and immobilized by an incubation at 4° C. overnight. […] After washed three times with buffer solution B containing 0.05% Tween 20, the plates were allowed to develop color by adding 100 μL, of color reagent, TMB (Moss). The color reaction was stopped by 25 μL of 1 mol/L sulfuric acid and the absorbance was determined at 450 nm with a microplate reader (Molecular Device, VersaMax).
(An ELISA detects its analyte on a solid surface through an enzyme-linked reagent.)

Another assay concerns the target T2, mouse 11β-HSD1 (Mus musculus, UniProt P50172).
T2 construct: expressed in transfected cells
Kind of assay: Enzyme inhibitory activity assay, lysate of CHO-K1 cells stably expressing mouse 11β-HSD1, cortisol by competitive ELISA. Type of assay: biochemical. The conditions noted are these: Table 2; cell lysate, 100 nmol/L cortisone, NADPH, 37° C. 1 hour; read-out: in vitro assay (IC50 uM) m HSD1. As for the experimental part:
as §1, §2, §3, §4, §5

Molecules are shown by their SMILES.

T2 sequence (P50172 whole entry): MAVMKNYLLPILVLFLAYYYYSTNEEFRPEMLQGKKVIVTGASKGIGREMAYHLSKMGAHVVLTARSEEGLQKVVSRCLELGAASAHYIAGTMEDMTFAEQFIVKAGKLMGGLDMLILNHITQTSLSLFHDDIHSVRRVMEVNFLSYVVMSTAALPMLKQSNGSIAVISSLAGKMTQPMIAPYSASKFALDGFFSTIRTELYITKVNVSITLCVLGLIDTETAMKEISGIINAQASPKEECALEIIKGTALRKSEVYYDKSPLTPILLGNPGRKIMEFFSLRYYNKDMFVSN
T1 sequence (P28845 whole entry): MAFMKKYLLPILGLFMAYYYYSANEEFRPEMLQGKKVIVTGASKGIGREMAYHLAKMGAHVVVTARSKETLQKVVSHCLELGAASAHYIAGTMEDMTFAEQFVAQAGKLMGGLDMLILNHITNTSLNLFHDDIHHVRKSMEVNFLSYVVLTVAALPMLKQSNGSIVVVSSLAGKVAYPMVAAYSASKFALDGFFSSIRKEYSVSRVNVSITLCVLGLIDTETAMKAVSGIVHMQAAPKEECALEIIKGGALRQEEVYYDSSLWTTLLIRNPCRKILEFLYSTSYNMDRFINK

As to `CC1(C)C(=O)N(C2C3CC4CC(C3)CC2C4)C1c1cccc(Cl)c1Cl` (centres unmarked) [Example 2, 1-(adamantan-2-yl)-3,3-dimethyl-4-(2,3-dichlorophenyl)azetidin-2-one], the IC50 at human 11β-HSD1 was determined as 0.0054 µM; at mouse 11β-HSD1 it was 0.054 µM. As for `CC1(C)C(=O)N([C@H]2C3CC4CC2C[C@](Cl)(C4)C3)C1c1cccc(Cl)c1Cl` (stereo partly drawn) [Example 3, trans-1-(5-chloroadamantan-2-yl)-3,3-dimethyl-4-(2,3-dichlorophenyl)azetidin-2-one], the figures for the IC50 on human 11β-HSD1 and at mouse 11β-HSD1 were 0.057 µM and 0.31 µM, respectively. The like results for `CC1(C)C(=O)N([C@H]2C3CC4CC2C[C@@](Cl)(C4)C3)C1c1cccc(Cl)c1Cl` (stereo partly drawn) [Example 4, cis-1-(5-chloroadamantan-2-yl)-3,3-dimethyl-4-(2,3-dichlorophenyl)azetidin-2-one] were, in that order, 0.046 µM and 0.34 µM.

With `CC1(C)C(=O)N([C@H]2C3CC4CC2C[C@](Cl)(C4)C3)C1c1cccc2ccccc12` (stereo partly drawn) [Example 5, trans-1-(5-chloroadamantan-2-yl)-3,3-dimethyl-4-(naphthalen-1-yl)azetidin-2-one], the figures for the half-inhibitory concentration (IC50) at human 11β-HSD1 and at mouse 11β-HSD1 were 0.88 µM and 0.66 µM, respectively. The matching figures for `CC1(C)C(=O)N([C@H]2C3CC4CC2C[C@@](Cl)(C4)C3)C1c1cccc2ccccc12` (stereo partly drawn) [Example 6, cis-1-(5-chloroadamantan-2-yl)-3,3-dimethyl-4-(naphthalen-1-yl)azetidin-2-one]: 0.56 µM and 0.87 µM. Consider `COC(=O)[C@]12CC3CC(C1)[C@@H](N1C(=O)C(C)(C)C1c1cccc(Cl)c1Cl)C(C3)C2` (stereo partly drawn) [Example 7, methyl trans-4-[2-(2,3-dichlorophenyl)-3,3-dimethyl-4-oxoazetidin-1-yl]-1-adamantane carboxylate], for which the figures for the IC50 on human 11β-HSD1 and on mouse 11β-HSD1 were 0.013 µM and 0.25 µM, respectively. With `CC1(C)C(=O)N([C@H]2C3CC4CC2C[C@](C(=O)O)(C4)C3)C1c1cccc(Cl)c1Cl` (stereo partly drawn) [Example 8, trans-4-[2-(2,3-Dichlorophenyl)-3,3-dimethyl-4-oxoazetidin-1-yl]-1-adamantane carboxylic acid], the IC50 at human 11β-HSD1 stood at 0.066 µM. `CC1(C)C(=O)N([C@H]2C3CC4CC2C[C@](C(N)=O)(C4)C3)C1c1cccc2cnccc12` (stereo partly drawn) [Example 16, trans-4-[2-(isoquinolin-5-yl)-3,3-dimethyl-4-oxoazetidin-1-yl]-1-adamantane carboxyamide]: the IC50 on human 11β-HSD1 came out at 0.41 µM. Consider `CC1(C)C(=O)N(C2C3CC4CC(C3)CC2C4)C1c1ccc(F)c(C(F)(F)F)c1` (centres unmarked) [Example 32, 1-(adamantan-2-yl)-3,3-dimethyl-4-(4-fluoro-3-trifluoromethylphenyl)azetidin-2-one], for which the half-inhibitory concentration (IC50) on human 11β-HSD1 was determined as 0.024 µM.

Turning to `CC1(C)C(=O)N(C2C3CC4CC(C3)CC2C4)C1c1cc(F)c(F)c(F)c1` (centres unmarked) [Example 36, 1-(adamantan-2-yl)-3,3-dimethyl-4-(3,4,5-trifluorophenyl)azetidin-2-one], on human 11β-HSD1, the IC50 stood at 0.091 µM.

For the molecule `CC1(C)C(=O)N(C2C3CC4CC(C3)CC2C4)C1c1ccc(Br)cc1` (centres unmarked) [Example 43, 1-(adamantan-2-yl)-3,3-dimethyl-4-(4-bromophenyl)azetidin-2-one], the half-maximal inhibitory concentration (IC50) at human 11β-HSD1 came to 0.025 µM. On to `COC(=O)[C@]12CC3CC(C1)[C@@H](N1C(=O)C(C)(C)C1c1ccnc4ccccc14)C(C3)C2` (stereo partly drawn) [Example 49, methyl trans-4-[2-(quinolin-4-yl)-3,3-dimethyl-4-oxoazetidin-1-yl]-1-adamantane carboxylate], for which the concentration for half-maximal inhibition (IC50) on human 11β-HSD1 worked out at 0.1 µM. In the case of `CC1(C)C(=O)N([C@H]2C3CC4CC2C[C@](C(N)=O)(C4)C3)C1c1ccnc2ccccc12` (stereo partly drawn) [Example 51, trans-4-[2-(quinolin-4-yl)-3,3-dimethyl-4-oxoazetidin-1-yl]-1-adamantane carboxyamide], the half-maximal inhibitory concentration (IC50) on human 11β-HSD1 is 0.08 µM. In the case of `CC1(C)C(=O)N(C2C3CC4CC(C3)CC2C4)C1c1cc(C(F)(F)F)cc(C(F)(F)F)c1` (centres unmarked) [Example 54, 1-(adamantan-2-yl)-3,3-dimethyl-4-[3,5-bis(trifluoromethyl)phenyl]azetidin-2-one], on human 11β-HSD1, the half-inhibitory concentration (IC50) turned out to be 0.91 µM.

The IC50 is the midpoint of a concentration-inhibition curve.

Values taken from patent publication US8236789B2, “1-adamantyl azetidin-2-one derivatives and drugs containing same” (Kowa Company, Ltd., priority 2008, dated 2012).
